Assay results reported in patent US20260207649A1, “LSD1 INHIBITOR AND PRMT6 INHIBITOR FOR USE IN THE TREATMENT OF A DISEASE ASSOCIATED WITH GAIN-OF-FUNCTION OF ANDROGEN RECEPTOR (AR) AND/OR WITH OVEREXPRESSION OF AN AR COACTIVATOR” (FONDAZIONE TELETHON ETS(30%), priority 2022, published 2026).
Like-named read-outs stand apart in the source and are kept apart here.

Key:
AR = assay: Transcriptional assay in HEK293T cells expressing AR24Q or AR65Q, with LSD1/PRMT6 overexpression or CRISPR silencing; assay type: cell-based, human; settings: 16 h, inhibitor 10 μM; for effect of overexpression of LSD1 on AR transactivation: AR24Q and AR65Q with LSD1, DHT 10 nM; for effect of overexpression of PRMT6 on AR transactivation: AR24Q and AR65Q with PRMT6, DHT 10 nM
Method: Cell Cultures, Transfection, and Transduction MN1^9 and HEK293T (ATCC) cells were cultured and plated in DMEM complete medium [Dulbecco's Modified Eagle Medium supplemented with 10% fetal bovine serum (FBS), 1% penicillin/streptomycin (pen/strep), and 1% L-glutamine] and LNCaP cells in RPMI complete medium (Gibco Roswell Park Memorial Institute supplemented with 10% FBS, 1% penicillin/streptomycin, and 1% L-glutamine). C2C12 cells were cultured and differentiated to myotubes. Cells were kept in a humidified incubator with 5% CO2 at 37° C. HEK293T cells were transfected with polyethyleneimine (PEI) linear MW 25,000 Da (Sigma-Aldrich) according to well dimensions. DNA: PEI (0.5% v/v) ratio was 1:1. At 24 hours after the transfection the DMEM complete medium supplemented with 10% FBS was changed with DMEM supplemented with charcoal stripped FBS and cells were treated with vehicle (ethanol) or 10 nM DHT and harvested for the different analysis 24 h after the treatment. […] MN-1 cells were transfected with Lipofectamine 2000 according to manufacturer instructions (Thermo Fisher). […] The following day, positively transfected cells were selected with […] Blasticidin (PanReacApplichem, A3784,0025). After 24 hours of selection or at 48 hours post-transduction, cells were induced with 10 nM dihydrotestosterone (DHT) in DMEM or RPMI medium supplemented with 10% charcoal-stripped FBS, 1% pen/strep, and 1% L-glutamine. […] For differentiation stably transfected iPSCs were induced with Neural Induction Medium (NIM) containing […] doxycycline and 10 nM R1881. After 48 hours of doxycycline treatment, motor neurons were dissociated with accutase to single cells and re-plated on PDL/Laminin coated surfaces in Neural Differentiation Medium (NDM) containing […] doxycycline and 10 nM R1881. On day 4, half of the cell culture medium was removed and replaced by Neuron Medium (NM) containing 10 nM R1881.
Luciferase assays were performed. In brief, HEK293T cells were transfected with vectors expressing non-expanded and polyglutamine-expanded AR together with vectors expressing the luciferase reporter gene under the control of a canonical androgen responsive element (ARE-Luc). To normalize data for transfection efficiency, the cells express Renilla reporter gene under the control of the timidine kinase (TK-Ren) transfected with ARE-Luc in a ratio of 1:10. Cells are treated with vehicle and DHT for 16 h and then processed for luciferase assay, as manufacturer's instructions (Promega).

polyQ-expanded AR = assay: Transcriptional (ARE-luciferase) assay in HEK293T cells expressing polyQ-expanded AR; assay type: cell-based, human; settings: AR65Q, DHT 10 nM, 16 h; for polyQ-expanded AR transactivation induced by DHT: mock-transfected, inhibitor 10 μM
Method: (§1) Cell Cultures, Transfection, and Transduction MN1^9 and HEK293T (ATCC) cells were cultured and plated in DMEM complete medium [Dulbecco's Modified Eagle Medium supplemented with 10% fetal bovine serum (FBS), 1% penicillin/streptomycin (pen/strep), and 1% L-glutamine] and LNCaP cells in RPMI complete medium (Gibco Roswell Park Memorial Institute supplemented with 10% FBS, 1% penicillin/streptomycin, and 1% L-glutamine). C2C12 cells were cultured and differentiated to myotubes. Cells were kept in a humidified incubator with 5% CO2 at 37° C. HEK293T cells were transfected with polyethyleneimine (PEI) linear MW 25,000 Da (Sigma-Aldrich) according to well dimensions. DNA: PEI (0.5% v/v) ratio was 1:1. At 24 hours after the transfection the DMEM complete medium supplemented with 10% FBS was changed with DMEM supplemented with charcoal stripped FBS and cells were treated with vehicle (ethanol) or 10 nM DHT and harvested for the different analysis 24 h after the treatment. For the pharmacological inhibition, we treated cells with the LSD1 catalytic inhibitor tranylcypromine (TCP) and the PRMT inhibitor adenosine dialdehyde (AdOx) both at a final concentration of 10 μM, instead for the selective LSD1 inhibitor SP-2509, we used it at a final concentration of 100 nm. MN-1 cells were transfected with Lipofectamine 2000 according to manufacturer instructions (Thermo Fisher). MN1 and LNCaP cells were transiently transduced with lentiviruses (MOI 30) or transfected with 2 μg DNA using Lipofectamine 2000 CD Transfection Reagent (ThermoFisher Scientific, 12566014). The following day, positively transfected cells were selected with […] Blasticidin (PanReacApplichem, A3784,0025). After 24 hours of selection or at 48 hours post-transduction, cells were induced with 10 nM dihydrotestosterone (DHT) in DMEM or RPMI medium supplemented with 10% charcoal-stripped FBS, 1% pen/strep, and 1% L-glutamine. The SBMA iPSCs were derived and differentiated. iPSCs were maintained on Matrigel (Corning, 354277) coated tissue culture dishes in E8 Flex medium (Thermo Fisher, A2858501). […]

normal AR = assay: Transcriptional (ARE-luciferase) assay in HEK293T cells expressing normal AR; assay type: cell-based, human; settings: AR24Q, mock-transfected, DHT 10 nM, 16 h, inhibitor 10 μM
Method: Cell Cultures, Transfection, and Transduction MN1^9 and HEK293T (ATCC) cells were cultured and plated in DMEM complete medium [Dulbecco's Modified Eagle Medium supplemented with 10% fetal bovine serum (FBS), 1% penicillin/streptomycin (pen/strep), and 1% L-glutamine] and LNCaP cells in RPMI complete medium (Gibco Roswell Park Memorial Institute supplemented with 10% FBS, 1% penicillin/streptomycin, and 1% L-glutamine). C2C12 cells were cultured and differentiated to myotubes. Cells were kept in a humidified incubator with 5% CO2 at 37° C. HEK293T cells were transfected with polyethyleneimine (PEI) linear MW 25,000 Da (Sigma-Aldrich) according to well dimensions. DNA: PEI (0.5% v/v) ratio was 1:1. At 24 hours after the transfection the DMEM complete medium supplemented with 10% FBS was changed with DMEM supplemented with charcoal stripped FBS and cells were treated with vehicle (ethanol) or 10 nM DHT and harvested for the different analysis 24 h after the treatment. […] MN-1 cells were transfected with Lipofectamine 2000 according to manufacturer instructions (Thermo Fisher). […] The following day, positively transfected cells were selected with […] Blasticidin (PanReacApplichem, A3784,0025). […]

AR100Q mice = settings: three times a week, from week 4
Method: A randomized cohort of male transgenic AR100Q mice and WT siblings was assigned to either control or treated group.
Phenelzine was administered at a dose of 30 mg/Kg in drinking water; three times a week; TCP was administered at a dose of 6 mg/Kg intraperitoneal, three times a week.
Mice were randomized and the operators were blind for genotype and treatment. The phenotype was analyzed by looking at muscle strength with grip strength test.

AR65Q (human) = AR65Q (human) (UniProt P10275); assay: cell-based or functional assay
AR24Q (human) = AR24Q (human) (UniProt P10275); assay: cell-based or functional assay
Prmt6 = assay: Western blots of PRMT6 in MN1 cells transfected with amiR vectors; assay type: cell-based, mouse
Method: as §1, with “L-glutamine.” for “L-glutamine. The SBMA iPSCs were derived and differentiated. iPSCs were maintained on Matrigel (Corning, 354277) coated tissue culture dishes in E8 Flex medium (Thermo Fisher, A2858501).”
(§2) The protein concentration was measured using the bicinchoninic acid (BCA) assay method (Pierce™ BCA® Protein Assay, Thermo Scientific). […]

Lsd1 = assay: Western blots of LSD1 in MN1 cells transfected with amiR vectors; assay type: cell-based, mouse
Method: as §1, with “L-glutamine.” for “L-glutamine. The SBMA iPSCs were derived and differentiated. iPSCs were maintained on Matrigel (Corning, 354277) coated tissue culture dishes in E8 Flex medium (Thermo Fisher, A2858501).”
as §2

With Nc1ncnc2c1ncn2C(C=O)OC(C=O)CO (stereo not shown) [AdOx, adenosine dialdehyde] as the molecule, how does the “effect of overexpression of LSD1 on AR transactivation” value (AR) read?
The value was “reduced”.

What about the “effect of overexpression of PRMT6 on AR transactivation” value (AR) of the same molecule?
Its value is “attenuated”.

What about the “polyQ-expanded AR transactivation induced by DHT” value (polyQ-expanded AR) of the same molecule?
Its value is “reduced”.

What about the “normal AR transactivation induced by DHT” value (normal AR) of the same molecule?
Its value is “reduced”.

For NNCCc1ccccc1 [Phenelzine, phenelzine], which “phenotype of AR100Q mice (grip strength normalized to body weight)” value (AR100Q mice; 30 mg/Kg in drinking water) is on record?
Its value is “ameliorated”.

What does the source list for N[C@@H]1C[C@H]1c1ccccc1 (racemic) [TCP, tranylcypromine]?
effect of overexpression of LSD1 on AR transactivation (AR): reduced; effect of overexpression of PRMT6 on AR transactivation (AR): attenuated; polyQ-expanded AR transactivation induced by DHT (polyQ-expanded AR): reduced; normal AR transactivation induced by DHT (normal AR): reduced; phenotype of AR100Q mice (grip strength normalized to body weight) (AR100Q mice; 6 mg/Kg intraperitoneal): ameliorated

For “protein arginine methyltransferase 6 (PRMT6) (from UniProt Q96LA8 1-375)”, which AR transactivation (transcriptional assay, HEK293T cells) (AR65Q (human)) is on record?
Its AR transactivation (transcriptional assay, HEK293T cells) is 3.4 fold.

What about the AR transactivation (transcriptional assay, HEK293T cells) (AR24Q (human)) of the same molecule?
Its AR transactivation (transcriptional assay, HEK293T cells) is 3.1 fold.

C/C(=N\NC(=O)c1cccc(S(=O)(=O)N2CCOCC2)c1)c1cc(Cl)ccc1O [SP-2509] was tested. Which “polyQ-expanded AR transactivation” value (polyQ-expanded AR; inhibitor 100 nM) did it give?
Its value is “did not modify”.

B1: amiR-Prmt6 #2: artificial miRNA targeting mouse Prmt6, oligos SEQ ID NO: 141, 142 (nucleic acid)
chain 1: TGCTGCGGAGTAGCACTCGTAGTACAGTTTTGGCCACTGACTGACTGTACTACGTGCTACTCCG
chain 2: CCTGCGGAGTAGCACGTAGTACAGTCAGTCAGTGGCCAAAACTGTACTACGAGTGCTACTCCGC
modifications: expressed or natural sequence
With B1 as the molecule, how does the “silencing of Prmt6” value (Prmt6) read?
The value was ~ 50%.

B2: amiR-Lsd1 #2: artificial miRNA targeting mouse Lsd1, oligos SEQ ID NO: 155, 156 (nucleic acid)
chain 1: TGCTGTTTACTTGTTTGCTGACGACAGTTTTGGCCACTGACTGACTGTCGTCAAAACAAGTAAA
chain 2: CCTGTTTACTTGTTTTGACGACAGTCAGTCAGTGGCCAAAACTGTCGTCAGCAAACAAGTAAAC
modifications: expressed or natural sequence
Which “silencing of Lsd1 expression” value (Lsd1) does the source give for B2 here?
The value was 70%.

B3: amiR-Lsd1 #3: artificial miRNA targeting mouse Lsd1, oligos SEQ ID NO: 234, 235 (nucleic acid)
chain 1: TGCTGTTGATGAGAGGTATACATCACGTTTTGGCCACTGACTGACGTGATGTACCTCTCATCAA
chain 2: CCTGTTGATGAGAGGTACATCACGTCAGTCAGTGGCCAAAACGTGATGTATACCTCTCATCAAC
modifications: expressed or natural sequence
For B3, which “silencing of Lsd1 expression” value (Lsd1) is on record?
Its value is 70%.

B4: amiR-Prmt6 #6: artificial miRNA targeting mouse Prmt6, oligos SEQ ID NO: 149, 150 (nucleic acid)
chain 1: TGCTGAATCAGACCATGTTGCCTTTCGTTTTGGCCACTGACTGACGAAAGGCAATGGTCTGATT
chain 2: CCTGAATCAGACCATTGCCTTTCGTCAGTCAGTGGCCAAAACGAAAGGCAACATGGTCTGATTC
modifications: expressed or natural sequence
Which “silencing of Prmt6” value (Prmt6) does the source give for B4 here?
Its value is ~ 50%.

B5: amiR-Prmt6 #7: artificial miRNA targeting mouse Prmt6, oligos SEQ ID NO: 151, 152 (nucleic acid)
chain 1: TGCTGTATTAGATTAGAGTGCTCGCGGTTTTGGCCACTGACTGACCGCGAGCACTAATCTAATA
chain 2: CCTGTATTAGATTAGTGCTCGCGGTCAGTCAGTGGCCAAAACCGCGAGCACTCTAATCTAATAC
modifications: expressed or natural sequence
How did the “silencing of Prmt6” value (Prmt6) turn out when B5 was run?
The value was ~ 50%.

B6: amiR-Lsd1 #1: artificial miRNA targeting mouse Lsd1, oligos SEQ ID NO: 153, 154 (nucleic acid)
chain 1: TGCTGTTTCTCTGTATTCTACCTTGGGTTTTGGCCACTGACTGACCCAAGGTAATACAGAGAAA
chain 2: CCTGTTTCTCTGTATTACCTTGGGTCAGTCAGTGGCCAAAACCCAAGGTAGAATACAGAGAAAC
modifications: expressed or natural sequence
For B6, which “silencing of Lsd1 expression” value (Lsd1) is on record?
The value was 50%.
